Conditions: Wilhelmi plate

O [water]
Conditions | surface tension liquid-gas [mN/m]
272.64 K, Metastable liquid | 75.78
273.04 K, Metastable liquid | 75.71
275.06 K, Liquid | 75.41
276.72 K, Liquid | 75.17
280.09 K, Liquid | 74.69
280.34 K, Liquid | 74.65
283.27 K, Liquid | 74.23
286.54 K, Liquid | 73.74
288.33 K, Liquid | 73.46
290.57 K, Liquid | 73.12
293.04 K, Liquid | 72.74
294.13 K, Liquid | 72.58
295.71 K, Liquid | 72.33
297.4 K, Liquid | 72.07
298.42 K, Liquid | 71.91
299.35 K, Liquid | 71.77
300.3 K, Liquid | 71.62
301.78 K, Liquid | 71.39
302.43 K, Liquid | 71.28
303.41 K, Liquid | 71.13
304.45 K, Liquid | 70.96
305.69 K, Liquid | 70.76
306.63 K, Liquid | 70.61
307.99 K, Liquid | 70.39
310.6 K, Liquid | 69.97
313.69 K, Liquid | 69.47
316.02 K, Liquid | 69.07
318.49 K, Liquid | 68.66
323.62 K, Liquid | 67.79
328.1 K, Liquid | 67.03
333.49 K, Liquid | 66.1
337.83 K, Liquid | 65.34
343.49 K, Liquid | 64.33
